Assays:
Assay type in all cases: in vivo
[1] = system: Phakopsora pachyrhizi; experiment: Phakopsora pachyrhizi / soybean / preventative (soybean rust); details: foliar, soybean leaf disks, inoculated one day after application, assessed 12-14 days after application, read-out: control of Phakopsora pachyrhizi (percent disease control compared to untreated)
Description: Phakopsora pachyrhizi/Soybean/Preventative (Soybean Rust) Soybean leaf disks are placed on water agar in multiwell plates (24-well format) and sprayed with the formulated test compound diluted in water. One day after application leaf discs are inoculated by spraying a spore suspension on the lower leaf surface. After an incubation period in a climate cabinet of 24-36 hours in darkness at 20° C. and 75% rh leaf disc are kept at 20° C. with 12 h light/day and 75% rh. The activity of a compound is assessed as percent disease control compared to untreated when an appropriate level of disease damage appears in untreated check leaf disks (12-14 days after application).

[2] = system: Puccinia recondita f. sp. tritici; experiment: Puccinia recondita f. sp. tritici / wheat / leaf disc curative (brown rust); details: foliar, wheat leaf segments cv. Kanzler, compound applied 1 day after inoculation, assessed 6-8 days after application, read-out: control of Puccinia recondita f. sp. tritici (percent disease control compared to untreated)
Description: Puccinia recondita f. Sp. Tritici/Wheat/Leaf Disc Curative (Brown Rust) Wheat leaf segments cv. Kanzler are placed on agar in multiwell plates (24-well format). The leaf segments are inoculated with a spore suspension of the fungus. Plates are stored in darkness at 19° C. and 75% rh. The formulated test compound diluted in water is applied 1 day after inoculation. The leaf segments are incubated at 19° C. and 75% rh under a light regime of 12 h light/12 h darkness in a climate cabinet and the activity of a compound is assessed as percent disease control compared to untreated when an appropriate level of disease damage appears in untreated check leaf segments (6-8 days after application).

[3] = system: Puccinia recondita f. sp. tritici; experiment: Puccinia recondita f. sp. tritici / wheat / leaf disc preventative (brown rust); details: foliar, wheat leaf segments cv. Kanzler, inoculated 1 day after application, assessed 7-9 days after application, read-out: control of Puccinia recondita f. sp. tritici (percent disease control compared to untreated)
Description: Puccinia recondita f. Sp. Tritici/Wheat/Leaf Disc Preventative (Brown Rust) Wheat leaf segments cv. Kanzler are placed on agar in multiwell plates (24-well format) and sprayed with the formulated test compound diluted in water. The leaf disks are inoculated with a spore suspension of the fungus 1 day after application. The inoculated leaf segments are incubated at 19° C. and 75% rh under a light regime of 12 h light/12 h darkness in a climate cabinet and the activity of a compound is assessed as percent disease control compared to untreated when an appropriate level of disease damage appears in untreated check leaf segments (7-9 days after application).

[4] = system: Blumeria graminis f. sp. tritici (Erysiphe graminis f. sp. tritici); experiment: Blumeria graminis f. sp. tritici / wheat / leaf disc preventative (powdery mildew on wheat); details: foliar, wheat leaf segments cv. Kanzler, inoculated 1 day after application, assessed 6-8 days after application, read-out: control of Blumeria graminis f. sp. tritici (percent disease control compared to untreated)
Description: Blumeria graminis f. sp. tritici (Erysiphe graminis f. sp. tritici)/Wheat/Leaf Disc Preventative (Powdery Mildew on Wheat) Wheat leaf segments cv. Kanzler are placed on agar in a multiwell plate (24-well format) and sprayed with the formulated test compound diluted in water. The leaf disks are inoculated by shaking powdery mildew infected plants above the test plates 1 day after application. The inoculated leaf disks are incubated at 20° C. and 60% rh under a light regime of 24 h darkness followed by 12 h light/12 h darkness in a climate chamber and the activity of a compound is assessed as percent disease control compared to untreated when an appropriate level of disease damage appears on untreated check leaf segments (6-8 days after application).

Measured: pest or weed control at 200 ppm

CCCCOCC(O)(c1cc(C)c(/N=C/N(C)CC)cc1OC)C(F)(F)F (centres unmarked) [E.013, N′-[4-[1-(butoxymethyl)-2,2,2-trifluoro-1-hydroxy-ethyl]-5-methoxy-2-methyl-phenyl]-N-ethyl-N-methyl-formamidine]
≥ 80%: all assays above

CCCOCC(O)(c1cc(C)c(/N=C/N(C)CC)cc1OC)C(F)(F)F (centres unmarked) [E.014, N-ethyl-N′-[5-methoxy-2-methyl-4-[2,2,2-trifluoro-1-hydroxy-1-(propoxymethyl)ethyl]phenyl]-N-methyl-formamidine]
≥ 80%: all assays above

CCOCCOCC(O)(c1cc(C)c(/N=C/N(C)CC)cc1OC)C(F)(F)F (centres unmarked) [E.020, N′-[4-[1-(2-ethoxyethoxymethyl)-2,2,2-trifluoro-1-hydroxy-ethyl]-5-methoxy-2-methyl-phenyl]-N-ethyl-N-methyl-formamidine]
≥ 80%: all assays above

CCN(C)/C=N/c1cc(OC)c(C(O)(COCCc2ccccc2)C(F)(F)F)cc1C (centres unmarked) [E.021, N-ethyl-N′-[5-methoxy-2-methyl-4-[2,2,2-trifluoro-1-hydroxy-1-(2-phenylethoxymethyl)ethyl]phenyl]-N-methyl-formamidine]
≥ 80%: all assays above

CCN(C)/C=N/c1cc(OC)c(C(O)(COCc2ccc(C)cc2)C(F)(F)F)cc1C (centres unmarked) [E.027, N-ethyl-N′-[5-methoxy-2-methyl-4-[2,2,2-trifluoro-1-hydroxy-1-(p-tolylmethoxymethyl)ethyl]phenyl]-N-methyl-formamidine]
≥ 80%: all assays above

CCN(C)/C=N/c1cc(OC)c(C(O)(COC(C)c2ccccc2)C(F)(F)F)cc1C (centres unmarked) [E.028, N-ethyl-N′-[5-methoxy-2-methyl-4-[2,2,2-trifluoro-1-hydroxy-1-(1-phenylethoxymethyl)ethyl]phenyl]-N-methyl-formamidine]
≥ 80%: all assays above

CCN(C)/C=N/c1cc(OC)c(C(O)(CON=C(C)C)C(F)(F)F)cc1C (centres unmarked) [E.036, N-ethyl-N′-[5-methoxy-2-methyl-4-[2,2,2-trifluoro-1-hydroxy-1-[(isopropylideneamino)oxymethyl]ethyl]phenyl]-N-methyl-formamidine]
≥ 80%: all assays above

CCN(C)/C=N/c1cc(OC)c(C(O)(CON=C2CCCCC2)C(F)(F)F)cc1C (centres unmarked) [E.037, N′-[4-[1-[(cyclohexylideneamino)oxymethyl]-2,2,2-trifluoro-1-hydroxy-ethyl]-5-methoxy-2-methyl-phenyl]-N-ethyl-N-methyl-formamidine]
≥ 80%: all assays above

CCN(C)/C=N/c1cc(OC)c(C(O)(COC2CCCCC2)C(F)(F)F)cc1C (centres unmarked) [E.039, N′-[4-[1-(cyclohexoxymethyl)-2,2,2-trifluoro-1-hydroxy-ethyl]-5-methoxy-2-methyl-phenyl]-N-ethyl-N-methyl-formamidine]
≥ 80%: all assays above

CC#CCOCC(O)(c1cc(C)c(/N=C/N(C)CC)cc1OC)C(F)(F)F (centres unmarked) [E.040, N′-[4-[1-(but-2-ynoxymethyl)-2,2,2-trifluoro-1-hydroxy-ethyl]-5-methoxy-2-methyl-phenyl]-N-ethyl-N-methyl-formamidine]
≥ 80%: all assays above

C#CCOCC(O)(c1cc(C)c(/N=C/N(C)CC)cc1OC)C(F)(F)F (centres unmarked) [E.041, N-ethyl-N′-[5-methoxy-2-methyl-4-[2,2,2-trifluoro-1-hydroxy-1-(prop-2-ynoxymethyl)ethyl]phenyl]-N-methyl-formamidine]
≥ 80%: all assays above

CCN(C)/C=N/c1cc(OC)c(C(O)(COC2CCC(C)CC2)C(F)(F)F)cc1C (centres unmarked) [E.042, N-ethyl-N′-[5-methoxy-2-methyl-4-[2,2,2-trifluoro-1-hydroxy-1-[(4-methylcyclohexoxy)methyl]ethyl]phenyl]-N-methyl-formamidine]
≥ 80%: all assays above

CCN(C)/C=N/c1cc(OC)c(C(O)(COCC(C)C)C(F)(F)F)cc1C (centres unmarked) [E.046, N-ethyl-N′-[5-methoxy-2-methyl-4-[2,2,2-trifluoro-1-hydroxy-1-(isobutoxymethyl)ethyl]phenyl]-N-methyl-formamidine]
≥ 80%: all assays above

CCN(C)/C=N/c1cc(OC)c(C(O)(COc2ccccc2)C(F)(F)F)cc1C (centres unmarked) [E.047, N-ethyl-N′-[5-methoxy-2-methyl-4-[2,2,2-trifluoro-1-hydroxy-1-(phenoxymethyl)ethyl]phenyl]-N-methyl-formamidine]
≥ 80%: all assays above

CC#CCOCCC(O)(c1cc(C)c(/N=C/N(C)CC)cc1OC)C(F)(F)F (centres unmarked) [E.049, N′-[4-[3-but-2-ynoxy-1-hydroxy-1-(trifluoromethyl)propyl]-5-methoxy-2-methyl-phenyl]-N-ethyl-N-methyl-formamidine]
≥ 80%: all assays above

C#CCOCCC(O)(c1cc(C)c(/N=C/N(C)CC)cc1OC)C(F)(F)F (centres unmarked) [E.050, N-ethyl-N′-[4-[1-hydroxy-3-prop-2-ynoxy-1-(trifluoromethyl)propyl]-5-methoxy-2-methyl-phenyl]-N-methyl-formamidine]
≥ 80%: all assays above

CCN(C)/C=N/c1cc(OC)c(C(O)(CCOCc2ccccc2)C(F)(F)F)cc1C (centres unmarked) [E.051, N′-[4-[3-benzyloxy-1-hydroxy-1-(trifluoromethyl)propyl]-5-methoxy-2-methyl-phenyl]-N-ethyl-N-methyl-formamidine]
≥ 80%: all assays above
